- melting point: 68.1 °C
Structure (SMILES): CNCC[C@@H](Oc1cncc2sccc12)c1ccccc1.Cl

— patent US7410982B2, “Propanamine derivatives as serotonin and norepinephrine reuptake inhibitors” (Eli Lilly and Company, priority 2002, dated 2008)
